Reference: patent publication US20180303853A1, “COMPOSITIONS AND METHODS FOR TREATING BACTERIAL INFECTIONS USING CEFTAROLINE” (priority 2017, published 2018)

Legend:
[1] = test system: CYP1A2, CYP2B6, CYP2C8, CYP2C9, CYP2CI9, or CYP3A4/5; assay: CYP induction in human hepatocytes; assay type: in vitro ADME; details: human hepatocytes
[2] = test system: Streptococcus anginosus group; assay: Phase 3 cSSSI studies, clinical cure by infecting pathogen; assay type: in vivo, S. anginosus, S. intermedius, and S. constellatus; details: ME patients
Description: (§1) A total of 1396 adults with clinically documented complicated skin and skin structure infections (cSSSI) were enrolled in two randomized, multi-center, multinational, double-blind, studies comparing 600 mg ceftaroline fosamil administered intravenously over 1 hour every 12 hours to vancomycin plus aztreonam [1 g vancomycin administered intravenously over 1 hour followed by 1 g aztreonam administered intravenously over 1 hour every 12 hours]. Patients with cSSSI (deep/extensive cellulitis, a major abscess, a wound infection [surgical or traumatic], infected insect bites, burns or ulcers, lower extremity infection in patients with diabetes mellitus or peripheral vascular disease), were enrolled in the studies. Treatment duration was […] days. A switch to oral therapy was not allowed. The Modified Intent-to-Treat (MITT) population included all patients who received any amount of study drug according to their randomized treatment group.
(§2) The primary efficacy endpoint was clinical response at the Test of Cure (TOC) visit in the co-primary CE and MITT populations (Table 2). […] In a subgroup analysis (CE population), the comparative clinical cure rates between the ceftaroline group and the vancomycin plus aztreonam group were not affected by age, gender, race, ethnicity, or weight.

Klebsiella pneumoniae [3] = assay: Integrated Phase 3 CABP studies, clinical cure by infecting pathogen; assay type: in vivo; details: ME patients
Description: (§3) In both treatment groups of CABP Study 1, two doses of oral clarithromycin (500 mg q12 h), were administered as adjunctive therapy starting on Study Day 1. No adjunctive macrolide therapy was used in CABP Study 2. Patients with new or progressive pulmonary infiltrate(s) on chest radiography and clinical signs and symptoms consistent with CABP with the need for hospitalization and IV therapy were enrolled in the studies. Treatment duration was 5 to 7 days. A switch to oral therapy was not allowed. The Modified Intent-to-Treat Efficacy (MITTE) population, included all patients who received any amount of study drug according to their randomized, treatment group and were in PORT (Pneumonia Outcomes Research Team) Risk Class III or IV.
(§4) The primary efficacy endpoint was the clinical response at the Test of Cure (TOC) visit in the co-primary Ce and MITTE populations (Table 4).

Streptococcus pneumoniae = assay: as above; assay type: in vivo; details: ME patients
Description: as §3, §4

Haemophilus influenzae = assay: as above; assay type: in vivo; details: ME patients
Description: as §3, §4

Escherichia coli [4] = assay: as above; assay type: in vivo; details: ME patients
Description: as §3, §4

Staphylococcus aureus [5] = assay: as above; assay type: in vivo; details: ME patients
Description: as §3, §4

[6] = Excretion after single IV dose of radiolabeled ceftaroline fosamil in healthy male adults; assay type: in vivo, human; details: single 600 mg IV dose of radiolabeled ceftaroline fosamil
Description: Following administration of a single 600 mg IV dose of radiolabeled ceftaroline fosamil to healthy male adults, approximately 87% of radioactivity was recovered in urine and 6% in feces. The majority of the radioactivity (˜90%) was recovered within 48 hours. Of the radioactivity recovered in urine, approximately 64% was excreted as ceftaroline and approximately 2% as ceftaroline-M-1.

[7] = test system: CYP1A1, CYP1A2, CYP2A6, CYP2B6, CYP2C8, CYP2C9, CYP2C19, CYP2D6, CYP2E1 and CYP3A4; assay: Cytochrome P450 inhibition in human liver microsomes; assay type: in vitro ADME; details: human liver microsomes
[8] = test system: complicated skin and skin structure infections (cSSSI); assay: Two Phase 3 studies in cSSSI, clinical cure at TOC; assay type: in vivo, human; details: Integrated Studies, CE population, 5 to 14 days of therapy
[9] = test system: MRSA (methicillin-resistant); assay type: in vivo, Staphylococcus aureus; details: cSSSI, ME patients
Description: as §1, §2

[10] = test system: MSSA (methicillin-susceptible); assay: Integrated Phase 3 CABP studies, clinical cure by infecting pathogen; assay type: in vivo, Staphylococcus aureus; details: ME patients
Description: as §3, §4

[11] = Pharmacokinetics of ceftaroline after IV infusion of ceftaroline fosamil in adults with normal renal function
[12] = test system: MDRSP (multidrug-resistant); assay type: in vivo, Streptococcus pneumoniae; details: CABP, ME patients
Description: as §3, §4

[13] = test system: complicated skin and skin structure infections (cSSSI); assay: Two Phase 3 studies in cSSSI, clinical cure at TOC; assay type: in vivo, human; details: for Treatment Difference (2-sided 95% CI): vs Vancomycin/Aztreonam
Description: as §1, §2

Klebsiella pneumoniae [14] = assay: Phase 3 cSSSI studies, clinical cure by infecting pathogen; assay type: in vivo; details: ME patients
Description: as §1, §2

Streptococcus agalactiae = assay: as above; assay type: in vivo; details: ME patients
Description: as §1, §2

[15] = test system: Streptococcus dysgalactiae; assay: as above; assay type: in vivo; details: ME patients
Description: as §1, §2

Streptococcus pyogenes = assay: as above; assay type: in vivo; details: ME patients
Description: as §1, §2

Morganella morganii = assay: as above; assay type: in vivo; details: ME patients
Description: as §1, §2

Escherichia coli [16] = assay: as above; assay type: in vivo; details: ME patients
Description: as §1, §2

Klebsiella oxytoca = assay: as above; assay type: in vivo; details: ME patients
Description: as §1, §2

Staphylococcus aureus [17] = assay: as above; assay type: in vivo; details: ME patients
Description: as §1, §2

[18] = Four pooled controlled comparative Phase 3 clinical studies (two cSSSI, two CABP), safety; details: pooled Phase 3 studies
Description: Ceftaroline fosamil was evaluated in four controlled comparative Phase 3 clinical studies (two in cSSSI and two in CABP).

[19] = test system: MSSA (methicillin-susceptible); assay: Phase 3 cSSSI studies, clinical cure by infecting pathogen; assay type: in vivo, Staphylococcus aureus; details: ME patients
Description: as §1, §2

[20] = test system: Community-Acquired Bacterial Pneumonia (CABP); assay: Two Phase 3 studies in CABP, clinical cure at TOC (single and integrated/combined); assay type: in vivo, human; details: for Treatment Difference (2-sided 95% CI): vs Ceftriaxone
Description: as §3, §4

[21] = Aqueous solubility of ceftaroline fosamil

## CCO/N=C(\C(=O)N[C@@H]1C(=O)N2C(C(=O)[O-])=C(Sc3nc(-c4cc[n+](C)cc4)cs3)CS[C@H]12)c1nsc(NP(=O)(O)O)n1 [Ceftaroline fosamil, (6R,7R)-7-{(2Z)-2-(ethoxyimino)-2-[5-(phosphonoamino)-1,2,4-thiadiazol-3-yl]acetamido}-3-{[4-(1-methylpyridin-1-ium-4-yl)-1,3-thiazol-2-yl]sulfanyl}-8-oxo-5-thia-1-azabicyclo[4.2.0]oct-2-ene-2-carboxylate]
[1]
  induction of CYP isoenzymes: not inducers
[2]
  Clinical cure rate by infecting pathogen: 12/13 (92.3%)
Klebsiella pneumoniae [3]
  Clinical cure rate by infecting pathogen: 13/13 (100%)
Streptococcus pneumoniae
  Clinical cure rate by infecting pathogen: 54/63 (85.7%)
Haemophilus influenzae
  Clinical cure rate by infecting pathogen: 15/18 (83.3%)
Escherichia coli [4]
  Clinical cure rate by infecting pathogen: 10/12 (83.3%)
Staphylococcus aureus [5]
  Clinical cure rate by infecting pathogen: 18/25 (72.0%)
[6]
  radioactivity recovered in feces: ~6%
  radioactivity recovered in urine: approximately 87%
  radioactivity recovered within 48 hours: ~90%
[7]
  inhibition of major cytochrome P450 isoenzymes: neither ceftaroline fosamil nor ceftaroline inhibits
[8]
  Clinical cure rate at TOC: 559/610 (91.6) %
[9]
  Clinical cure rate by infecting pathogen: 142/152 (93.4%)
[10]
  Clinical cure rate by infecting pathogen: 18/25 (72.0%)
[11]; 600 mg every 8 or 12 hours for up to 14 days, normal renal function
  accumulation following multiple IV infusions: No appreciable accumulation
[11]; appeared to be mediated by a phosphatase enzyme
  conversion of prodrug in plasma: rapidly converted into bioactive ceftaroline
[12]
  Clinical cure rate by infecting pathogen: 4/4 (100%)
[13]; Integrated Studies, MITT population
  Clinical cure rate at TOC: 595/693 (85.9) %
[13]; cSSSI Study 1, CE population
  Clinical cure rate at TOC: 288/316 (91.1) %
[13]; cSSSI Study 1, MITT population
  Clinical cure rate at TOC: 304/351 (86.6) %
[13]; cSSSI Study 2, CE population
  Clinical cure rate at TOC: 271/294 (92.2) %
[13]; cSSSI Study 2, MITT population
  Clinical cure rate at TOC: 291/342 (85.1) %
[13]; Integrated Studies, CE
  Treatment Difference (2-sided 95% CI): −1.1 (−4.2, 2.0)
[13]; Integrated Studies, MITT
  Treatment Difference (2-sided 95% CI): 0.3 (−3.4, 4.0)
[13]; cSSSI Study 1, CE
  Treatment Difference (2-sided 95% CI): −2.2 (−6.6, 2.1)
[13]; cSSSI Study 1, MITT
  Treatment Difference (2-sided 95% CI): 1.0 (−4.2, 6.2)
Klebsiella pneumoniae [14]
  Clinical cure rate by infecting pathogen: 17/18 (94.4%)
Streptococcus agalactiae
  Clinical cure rate by infecting pathogen: 21/22 (95.5%)
[15]
  Clinical cure rate by infecting pathogen: 13/13 (100%)
Streptococcus pyogenes
  Clinical cure rate by infecting pathogen: 56/56 (100%)
Morganella morganii
  Clinical cure rate by infecting pathogen: 11/12 (91.7%)
Escherichia coli [16]
  Clinical cure rate by infecting pathogen: 20/21 (95.2%)
Klebsiella oxytoca
  Clinical cure rate by infecting pathogen: 10/12 (83.3%)
Staphylococcus aureus [17]
  Clinical cure rate by infecting pathogen: 352/378 (93.1%)
[18]
  Adverse reaction: Constipation: 2%
  Adverse reaction: Diarrhea: 5%
  Adverse reaction: Headache: 4%
  Adverse reaction: Hypokalemia: 2%
  Adverse reaction: Increased transaminases: 2%
  Adverse reaction: Insomnia: 3%
  Adverse reaction: Nausea: 4%
  Adverse reaction: Phlebitis: 2%
  Adverse reaction: Pruritus: 2%
  Adverse reaction: Rash: 3%
  Adverse reaction: Vomiting: 2%
  Serious adverse events: 8%
  discontinuation due to hypersensitivity (most common adverse event leading to discontinuation): 0.3%
  treatment discontinuations due to adverse events: 4%
[19]
  Clinical cure rate by infecting pathogen: 212/228 (93.0%)
[20]; CABP Study 1, CE population
  Clinical cure rate at TOC: 194/224 (86.6%)
[20]; CABP Study 1, MITTE population
  Clinical cure rate at TOC: 244/291 (83.8%)
[20]; CABP Study 2, CE population
  Clinical cure rate at TOC: 193/235 (82.1%)
[20]; CABP Study 2, MITTE population
  Clinical cure rate at TOC: 235/289 (81.3%)
[20]; Integrated Studies, CE population, 5 to 7 days of therapy
  Clinical cure rate at TOC: 387/459 (84.3%)
[20]; Integrated Studies, MITTE population
  Clinical cure rate at TOC: 479/580 (82.6%)
[20]; CABP Study 1, CE
  Treatment Difference (2-sided 95% CI): 8.4 (1.4, 15.4)
[20]; CABP Study 1, MITTE
  Treatment Difference (2-sided 95% CI): 6.2 (−0.2, 12.6)
[20]; CABP Study 2, CE
  Treatment Difference (2-sided 95% CI): 4.9 (−2.5, 12.5)
[20]; CABP Study 2, MITTE
  Treatment Difference (2-sided 95% CI): 5.9 (−1.0, 12.7)
[20]; Integrated Studies, CE
  Treatment Difference (2-sided 95% CI): 6.7 (1.6, 11.8)
[20]; Integrated Studies, MITTE
  Treatment Difference (2-sided 95% CI): 6.0 (1.4, 10.7)
[21]
  aqueous solubility: 8-30 mg per ml
